Data as given in the supplement of paper PMC10307832.

Legend:
Assay in all cases: relative viability (nuclei count vs DMSO), 5 days (fraction); higher = more cells survive
NCI-H2347 = tested on: NCI-H2347
Outline: (§1)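 Five library-drug doses in √10 steps were combined with a fixed anchor-drug dose, or a single drug was given alone, by pin tool to lung cancer cell lines in 1536-well plates the day after seeding. Nuclei were stained and counted after 5 days. Relative viability is the nuclei count in treated wells over that in vehicle wells, taken as the median of duplicate plates.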

NCI-H727 = tested on: NCI-H727
Outline: as §1

201T = tested on: 201T
Outline: as §1

NCI-H1734 = tested on: NCI-H1734
Outline: as §1

NCI-H1355 = tested on: NCI-H1355
Outline: as §1

HCC-78 = tested on: HCC-78
Outline: as §1

HCC-44 = tested on: HCC-44
Outline: as §1

HCC-366 = tested on: HCC-366
Outline: as §1

ABC-1 = tested on: ABC-1
Outline: as §1

NCI-H838 = tested on: NCI-H838
Outline: as §1

NCI-H1666 = tested on: NCI-H1666
Outline: as §1

NCI-H358 = tested on: NCI-H358
Outline: as §1

LK-2 = tested on: LK-2
Outline: as §1

BEN = tested on: BEN
Outline: as §1

LOU-NH91 = tested on: LOU-NH91
Outline: as §1

NCI-H2405 = tested on: NCI-H2405
Outline: as §1

NCI-H1703 = tested on: NCI-H1703
Outline: as §1

NCI-H1755 = tested on: NCI-H1755
Outline: as §1

How did the relative viability (NCI-H2347; first compound 0.08 µM) turn out when `CCCCCCCCCCCC1=C(O)C(=O)C=C(O)C1=O` [Embelin] + NC(=O)Nc1cc(-c2cccc(F)c2)sc1C(=O)N[C@H]1CCCNC1 [AZD7762] (partner 0.2 µM) was run?
The relative viability was 0.841.

And the relative viability (NCI-H2347; first compound 0.8 µM)?
The relative viability was 0.85.

And the relative viability (NCI-H2347; first compound 2.53 µM)?
Its relative viability is 0.722.

And the relative viability (NCI-H2347; first compound 8 µM)?
Its relative viability is 0.67.

What about the relative viability (NCI-H727; first compound 0.08 µM) of the same molecule?
Its relative viability is 0.533.

What about the relative viability (NCI-H727; first compound 0.8 µM) of the same molecule?
The relative viability was 0.503.

What about the relative viability (NCI-H727; first compound 2.53 µM) of the same molecule?
The relative viability was 0.647.

And the relative viability (NCI-H727; first compound 8 µM)?
Its relative viability is 0.582.

And the relative viability (201T; first compound 0.08 µM)?
The relative viability was 0.713.

What about the relative viability (201T; first compound 0.8 µM) of the same molecule?
Its relative viability is 0.634.

What about the relative viability (201T; first compound 2.53 µM) of the same molecule?
The relative viability was 0.67.

What about the relative viability (201T; first compound 8 µM) of the same molecule?
Its relative viability is 0.61.

And the relative viability (NCI-H1734; first compound 0.08 µM)?
Its relative viability is 0.587.

What about the relative viability (NCI-H1734; first compound 0.8 µM) of the same molecule?
Its relative viability is 0.692.

And the relative viability (NCI-H1734; first compound 2.53 µM)?
The relative viability was 0.593.

What about the relative viability (NCI-H1734; first compound 8 µM) of the same molecule?
The relative viability was 0.622.

And the relative viability (NCI-H1355; first compound 0.08 µM)?
Its relative viability is 0.821.

What about the relative viability (NCI-H1355; first compound 0.8 µM) of the same molecule?
Its relative viability is 0.802.

What about the relative viability (NCI-H1355; first compound 2.53 µM) of the same molecule?
Its relative viability is 0.836.

What about the relative viability (NCI-H1355; first compound 8 µM) of the same molecule?
The relative viability was 0.743.

And the relative viability (HCC-78; first compound 0.08 µM)?
The relative viability was 0.555.

What about the relative viability (HCC-78; first compound 0.8 µM) of the same molecule?
Its relative viability is 0.773.

And the relative viability (HCC-78; first compound 2.53 µM)?
Its relative viability is 0.661.

And the relative viability (HCC-78; first compound 8 µM)?
The relative viability was 0.647.

What about the relative viability (HCC-44; first compound 0.08 µM) of the same molecule?
The relative viability was 1.07.

And the relative viability (HCC-44; first compound 0.8 µM)?
Its relative viability is 0.994.

And the relative viability (HCC-44; first compound 2.53 µM)?
Its relative viability is 0.999.

And the relative viability (HCC-44; first compound 8 µM)?
The relative viability was 1.11.

And the relative viability (HCC-366; first compound 0.08 µM)?
The relative viability was 0.317.

And the relative viability (HCC-366; first compound 0.8 µM)?
The relative viability was 0.314.

And the relative viability (HCC-366; first compound 2.53 µM)?
Its relative viability is 0.291.

And the relative viability (HCC-366; first compound 8 µM)?
Its relative viability is 0.281.

What about the relative viability (ABC-1; first compound 0.08 µM) of the same molecule?
The relative viability was 0.701.

What about the relative viability (ABC-1; first compound 0.8 µM) of the same molecule?
The relative viability was 1.01.

And the relative viability (ABC-1; first compound 2.53 µM)?
The relative viability was 0.875.

And the relative viability (ABC-1; first compound 8 µM)?
Its relative viability is 0.856.

And the relative viability (NCI-H838; first compound 0.08 µM)?
The relative viability was 0.946.

What about the relative viability (NCI-H838; first compound 0.8 µM) of the same molecule?
Its relative viability is 1.05.

What about the relative viability (NCI-H838; first compound 2.53 µM) of the same molecule?
Its relative viability is 0.912.

What about the relative viability (NCI-H838; first compound 8 µM) of the same molecule?
Its relative viability is 0.992.

What about the relative viability (NCI-H1666; first compound 0.08 µM) of the same molecule?
Its relative viability is 0.871.

What about the relative viability (NCI-H1666; first compound 0.8 µM) of the same molecule?
Its relative viability is 0.885.

What about the relative viability (NCI-H1666; first compound 2.53 µM) of the same molecule?
The relative viability was 0.782.

And the relative viability (NCI-H1666; first compound 8 µM)?
The relative viability was 0.922.

What about the relative viability (NCI-H358; first compound 0.08 µM) of the same molecule?
Its relative viability is 0.604.

And the relative viability (NCI-H358; first compound 0.8 µM)?
Its relative viability is 0.739.

What about the relative viability (NCI-H358; first compound 2.53 µM) of the same molecule?
Its relative viability is 0.517.

And the relative viability (NCI-H358; first compound 8 µM)?
Its relative viability is 0.491.

What about the relative viability (LK-2; first compound 0.08 µM) of the same molecule?
The relative viability was 0.497.

And the relative viability (LK-2; first compound 0.8 µM)?
The relative viability was 0.543.

And the relative viability (LK-2; first compound 2.53 µM)?
Its relative viability is 0.497.

And the relative viability (LK-2; first compound 8 µM)?
Its relative viability is 0.351.

And the relative viability (BEN; first compound 0.08 µM)?
Its relative viability is 0.63.

And the relative viability (BEN; first compound 0.8 µM)?
Its relative viability is 0.765.

And the relative viability (BEN; first compound 2.53 µM)?
Its relative viability is 0.716.

What about the relative viability (BEN; first compound 8 µM) of the same molecule?
The relative viability was 0.542.

And the relative viability (LOU-NH91; first compound 0.08 µM)?
The relative viability was 0.795.

And the relative viability (LOU-NH91; first compound 0.8 µM)?
Its relative viability is 0.932.

And the relative viability (LOU-NH91; first compound 2.53 µM)?
Its relative viability is 0.779.

What about the relative viability (LOU-NH91; first compound 8 µM) of the same molecule?
The relative viability was 0.729.

And the relative viability (NCI-H2405; first compound 0.08 µM)?
Its relative viability is 0.696.

And the relative viability (NCI-H2405; first compound 0.8 µM)?
Its relative viability is 0.838.

What about the relative viability (NCI-H2405; first compound 2.53 µM) of the same molecule?
Its relative viability is 0.876.

What about the relative viability (NCI-H2405; first compound 8 µM) of the same molecule?
The relative viability was 0.716.

What about the relative viability (NCI-H1703; first compound 0.08 µM) of the same molecule?
Its relative viability is 0.132.

What about the relative viability (NCI-H1703; first compound 0.8 µM) of the same molecule?
The relative viability was 0.166.

And the relative viability (NCI-H1703; first compound 2.53 µM)?
Its relative viability is 0.131.

And the relative viability (NCI-H1703; first compound 8 µM)?
The relative viability was 0.143.

And the relative viability (NCI-H1755; first compound 0.08 µM)?
Its relative viability is 0.432.

And the relative viability (NCI-H1755; first compound 0.8 µM)?
The relative viability was 0.477.

What about the relative viability (NCI-H1755; first compound 2.53 µM) of the same molecule?
Its relative viability is 0.45.

And the relative viability (NCI-H1755; first compound 8 µM)?
The relative viability was 0.429.
